Read-outs that look alike come from different tables or passages of the source.
Legend:
[1] = test system: gastric acid secretion; assay: Gastric acid secretion inhibition, modified Shay rat procedure; assay type: in vivo, rats (male, CFE strain); details: Rattus norvegicus, read-out: Percent inhibition of gastric acid secretion
From the text: The novel compounds of the present invention are effective inhibitors of gastric acid secretion and of ulcer development in experimental animals, and thus are potentially valuable as agents for the control of gastric secretion and of gastric erosion and as anti-ulcer agents. Gastric acid secretion inhibitory action is usually measured by the "Shay rat" procedure ^(1,2) with some modifications as follows.
(1) Shay et al., Gastroenterology, 5, 43 (1945).
The rats (male, CFE strain) were starved for 48 hours (water was given ad libitum) to permit evacuation of stomach contents. On the morning of the experiment, under ether anesthesia, the abdominal region was shaved and a midline incision (1-11/2" ) was made with a scapel. With the help of a closed curved hemostat the duodenum was picked up. Upon getting the duodenum into view, fingers were used to pull the stomach through the opening, the stomach was then gently manipulated with fingers to rid stomach of air and residual matter which were pushed through the pylorus. Two-5 inch sutures were drawn under the pyloric-duodenal puncture. A ligature at the juncture, was formed with one of the threads. The second ligature was also formed but not tightened.
The test compound or the vehicle, usually 1 ml./100 g. body weight, were injected into the duodenum as close as possible to the first ligature. After injection the second ligature was tightened below the injection site to minimize leakage. The stomach was placed back through the opening into the abdominal cavity, the area of incision was washed with saline and the incision was closed with autoclips. (Occasionally, instead of an intraduodenal injection, animals were dosed by the oral or subcutaneous route. In the latter case, dosing was done thirty to sixty minutes before the operation.)
The abdominal cavity was exposed by cutting with scissors and the esophagus close to the stomach was clamped off with a hemostat, the stomach was removed by cutting above the hemostat (the esophagus was cut) and between the two sutures. Extraneous tissue was removed, the stomach washed with saline and blotted on gauze. A slit was carefully made in the stomach which was held over a funnel and the contents were collected in a centrifuge tube. The stomach was further cut along the outside edge and turned inside out. Two ml. H2 O were used to wash the stomach contents into the respective centrifuge tube. The combined stomach contents and wash were then centrifuged out for 10 minutes in the International Size 2 Centrifuge (setting at 30). The supernatant was collected, volume measured and recorded, 2 drops of a phenylphthalein indicator (1% in 95% ethanol) were added and the solution was titrated with 0.02 N NaOH (or with 0.04 N NaOH when large volumes of stomach contents were encountered) to pH 8.4 (because of usual coloring of the stomach contents, phenolphthalein was only used to permit visual indication that the end point was near) and the amount of acid present was calculated.
Compounds inducing inhibition of gastric acid secretion of 20% or more were considered active. In a representative operation, and merely by way of illustration, the results obtained with this assay with typical compounds of the present invention are given in Table II below.

[2] = test system: basal gastric acid secretion; assay: Inhibition of total acid output (basal gastric acid secretion) in the acute gastric fistula rat; assay type: in vivo, female Sprague-Dawley rats; details: intraduodenal; for inhibition in vivo at 10 mg/kg / inhibition in vivo at 2.5 mg/kg / inhibition in vivo at 5 mg/kg: Rattus norvegicus
Procedure: Inhibition of basal gastric acid secretion can be determined by the following procedure.
Female Sprague-Dawley rats weighing 140-160 grams are fasted in individual cages for 18-24 hours. The rats are then lightly anesthetized with ether and their front teeth extracted to avoid destruction of the plastic cannula. A midline incision is then made and the stomach and duodenum exposed. A flanged polyvinyl tube is inserted into the fundic portion of the stomach and secured with a purse string suture line using 4-O Mersilene. The rat is then dosed by injection of the compound into the duodenum (1.0 ml. per 100 gram body weight). After dosing, the abdominal wall and skin are closed using metal wound clips. The rat is replaced in a cage containing a longitudinal slit to allow the polyvinyl tube to hang freely. An 8 ml. plastic collecting tube is attached to the flanged cannula and hangs freely below the cage. The first 30 minute sample is discarded designating this time as zero. The collecting tube is attached again and samples removed at the end of 60 and 120 minutes. These samples are referred to as "A" and "B" in the table. The hourly samples are then transferred to a 15 ml. centrifuge and centrifuged for 5-10 minutes. Total and sediment volume are then recorded with the supernatent volume being used as volume of secretion. A 1 ml. or less aliquot is then removed and placed in a 50 ml. beaker containing 10 ml. of distilled water. This sample is then titrated using 0.01 N NaPH to pH 7.0 using a Beckman zeromatic pH meter. Volume, titratable acidity (mew/L) and total acid output (ueq/hour) are recorded. Percent inhibition is determined by comparison with the appropriate control. Groups of three rats were used for preliminary testing, and groups of six rats were used for dose-response evaluations. All compounds are administered in a vehicle consisting of 0.5% methocel, 0.4% tween 80, and saline at a constant volume of 1 ml./100 gram rat. Samples are dispersed by sonification. Percent inhibition is calculated on basis of concurrent vehicle control.
In Table III which follows is given the effect on total acid output after 60 minutes and 120 minutes of intraduodenal dose, of representative compounds of this invention.

[3] = test system: ulcerogenic effects induced by indomethacin (stomach ulcers); assay type: in vivo, rat; details: indomethacin 20 mg/kg s.c., score 0-4
Procedure: It is further to be noted that although prostaglandins in general are not effective when administered by oral route, the compounds of this invention are effective orally. The assay to determine the protective effect of these compounds is carried out in the following manner.
Rats were starved for 48 hours (water was given ad libitum). Indomethacin (20 mg./kg. of body weight) was administered by the subcutaneous route and one-half the dose of the test compound was administered by gavage at the same time. After three hours, the second half of the test compound was administered, also by gavage. Five hours after the administration of indomethacin the animals were decapitated and the stomachs removed. The stomachs were washed with distilled water, blotted on gauze, cut along the larger curvature, and the contents rinsed with distilled water. The stomachs were spread out, pinned on a cork and visualized under magnifying glass for ulcers. The criteria for scoring of ulcers was as previously reported. [Abdel-Galil et al. Brit. J. Pharmac. Chemotherapy 33:1-14 (1968)]. […]
1 Petechial hemorrhage of pin point ulcers
3 Many ulcers, a few large
4 Many ulcers, mainly large
Control animals treated with indomethacin but not test compound consistently give scores of about 2.5-3.5. Control animals treated with neither indomethacin not test compound give scores of about 0.5-0.8. Compounds diminishing the control ulcer score by 0.5 unit or more are considered to be active.

[4] = 1 h, 10 mg/kg, 60 min, read-out: % Inhibition of total acid output, after 60 minutes (A)
[5] = 2 h, 10 mg/kg, 120 min, read-out: % Inhibition of total acid output, after 120 minutes (B)
[6] = 1 h, 60 min, read-out: % Inhibition of total acid output, after 60 minutes (A)
[7] = 2 h, 120 min, read-out: % Inhibition of total acid output, after 120 minutes (B)
[8] = total oral dose 50 mg/kg, controls 2.5-3.2
[9] = total oral dose 25 mg/kg, controls 2.7-3.9

SMILES	inhibition in vivo at 10 mg/kg [2, 4] [%]	inhibition in vivo at 10 mg/kg [2, 5] [%]	inhibition in vivo at 50 mg/kg ([1]; intraduodenal) [%]	also measured
CCCCC[C@H](O)/C=C/[C@H]1[C@H](C(C)(C)O)CC(=O)[C@@H]1C/C=C\CCCC(=O)O [11-deoxy-11α-(1-hydroxy-1-methylethyl)prostaglandin-E2]				inhibition in vivo at 8 mg/kg ([1]; sc, subcutaneous, 8 mg/kg): 31%
CCCCC[C@H](O)/C=C/[C@@H]1[C@@H](C/C=C\CCCC(=O)O)[C@@H](O)C[C@H]1C(C)(C)O [11-deoxy-11α-(1-hydroxy-1-methylethyl)prostaglandin-F2α]	36	35		
CCCCC[C@@H](/C=C/[C@H]1[C@H](SCC)CC(=O)[C@@H]1C/C=C\CCCC(=O)OC)OC(C)=O [11-deoxy-11α-ethylthio-15-O-acetyl prostaglandin E2 methyl ester]	80	24	27	inhibition in vivo at 2.5 mg/kg [2, 6]: 54%; inhibition in vivo at 5 mg/kg [2, 6]: 19%; inhibition in vivo at 2.5 mg/kg [2, 7]: 51%; inhibition in vivo at 5 mg/kg [2, 7]: 59%
CCCCCC(C)/C=C/[C@H]1[C@H](C)CC(=O)[C@@H]1C/C=C\CCCC(=O)OC (stereo partly drawn) [11-deoxy-11α-methyl-15-deoxy-15-methylprostaglandin E2 methyl ester]			40	
CCCCC[C@H](O)/C=C/[C@@H]1[C@@H](C/C=C\CCCC(=O)O)[C@@H](O)C[C@H]1C(N)=O [11α-carboxamido-11-deoxyprostaglandin F2α]			27	Ulcer score, treated animals [3, 8]: 2.3
CCCCC[C@H](O)/C=C/[C@@H]1[C@@H](C/C=C\CCCC(=O)O)[C@@H](O)C[C@H]1C(C)C [11α-isopropyl-11-deoxyprostaglandin F2α]	44	35		
CCCCC[C@H](O)/C=C/[C@H]1[C@H](C[N+](=O)[O-])C[C@H](O)[C@@H]1C/C=C\CCCC(=O)O [11α-nitromethyl-11-deoxyprostaglandin F2α]			38	Ulcer score, treated animals [3, 8]: 1.8
CCCCC[C@@H](/C=C/[C@H]1C(C#N)CC(=O)[C@@H]1C/C=C\CCCC(=O)OC)OC(C)=O (stereo partly drawn) [11α/11β-cyano-11-deoxy-15-O-acetyl-prostaglandin E2 methyl ester]	40	34		inhibition in vivo at 25 mg/kg ([1]; intraduodenal, 25 mg/kg): 51%; Ulcer score, treated animals ([3]; total oral dose 12.5 mg/kg, controls 2.5-3.0): 2.0; Ulcer score, treated animals [3, 8]: 1.3
CCCCC[C@H](O)/C=C/[C@H]1C(C#N)CC(=O)[C@@H]1C/C=C\CCCC(=O)OC (stereo partly drawn) [11α/β-cyano-11-deoxyprostaglandin E2 methyl ester]			33	Ulcer score, treated animals [3, 9]: 1.3
CCCCCC(C)/C=C/[C@@H]1[C@@H](C/C=C\CCCC(=O)O)[C@@H](O)C[C@H]1C (stereo partly drawn) [l-9α-hydroxy-11α,15-dimethyl-S--cis,13-trans-prostadienoic acid]	25	20		
CCCCCC(O)/C=C/C1C(S)CC(O)C1C/C=C\CCCC(=O)O (stereo not drawn) [l-11-mercapto-11-deoxprostaglandin-F2 α, l-11-deoxy-11α-mercaptoprostaglandin-F2 α]				% Inhibition of total acid output, after 60 minutes (A) ([2]; 10 mg/kg, 60 min): 44%; % Inhibition of total acid output, after 120 minutes (B) ([2]; 10 mg/kg, 120 min): 55%
CCCCCC(C)/C=C/C1C(C)CC(=O)C1C/C=C\CCCC(=O)O (stereo not drawn) [l-11α,15-dimethyl-11,15-bis-deoxyprostaglandin-E2 α]				Ulcer score, treated animals [3, 8]: 2.2
CCCCC[C@H](O)/C=C/[C@H]1[C@H](CC)C[C@H](O)[C@@H]1C/C=C\CCCC(=O)O [l-11α-ethyl-11-deoxyprostaglandin-F2 α, 11α-ethyl-11-deoxyprostaglandin F2α]				Ulcer score, treated animals [3, 9]: 2.2
CCCCC[C@@H](/C=C/[C@H]1[C@H](C)CC(=O)[C@@H]1C/C=C\CCCC(=O)OC)OC(C)=O [l-11α-methyl-11-deoxyprostaglandin-E2 15-O--acetyl methyl ester]			63	
CCCCC[C@@H](/C=C/[C@H]1[C@H](SC)CC(=O)[C@@H]1C/C=C\CCCC(=O)OC)OC(C)=O [l-11α-methylthio-11-deoxyprostaglandin-E2 15-O--acetate methyl ester]			35	Ulcer score, treated animals [3, 8]: 2.0
CCCCC[C@H](O)/C=C/[C@H]1[C@H](SC)CC(=O)[C@@H]1C/C=C\CCCC(=O)OC [l-11α-methylthio-11-deoxyprostaglandin-E2 methyl ester]				inhibition in vivo at 100 mg/kg ([1]; intraduodenal, 100 mg/kg): 55%
CCCCC[C@H](O)/C=C/[C@@H]1[C@@H](C/C=C\CCCC(=O)O)[C@@H](O)C[C@H]1c1ccccc1 [l-11α-phenyl-11-deoxyprostaglandin-F2 α, l-11-deoxy-11α-phenylprostaglandin-F2 α]				Ulcer score, treated animals [3, 9]: 2.0
CCCCC[C@H](O)/C=C/[C@H]1[C@@H](CO)C[C@H](O)[C@@H]1C/C=C\CCCC(=O)O [l-11β-hydroxymethyl-11-deoxyprostaglandin-F2 α]	0	43		
